Test results published in paper PMC8942775, “Lipidated Calcitonin Gene-Related Peptide (CGRP) Peptide Antagonists Retain CGRP Receptor Activity and Attenuate CGRP Action In Vivo” (Frontiers in Pharmacology, 2022).

How the values were obtained:
mCGRP receptor = mCGRP receptor (Mus musculus, UniProt Q9R1W5+Q9WTJ5); experiment: cell-based; settings: SEM
Method: (§1) Cells were grown in a humidified incubator at 37°C and 5% CO2 and seeded into 96-well plates at a density of 20,000 cells/well. The following day, Cos-7 cells were transiently transfected using Polyethylenimine (PEI) using a 1:1 ratio of receptor:RAMP DNA.
(§2) Transfected Cos-7 cells were incubated with agonist in the presence or absence of antagonist at 37°C for 15 min. cAMP production was terminated by aspirating all the media in the wells, followed by the addition of 50 μl of ice-cold ethanol.
(§3) The Hill slope was constrained to one following agonist analyses. The Schild slope was also constrained to one. The pA2 and pKB values were obtained from the Schild analysis. For washout experiments, the same method of analysis was applied to the antagonists, but with minor revisions. The Schild analysis relied on the matched control agonist curves i.e. those derived from the same experimental conditions as the agonist + antagonist curves. Normalization was also specific to the matched control agonist curves.
(§4) Mean pEC50, pKB and pA2 values from at least three independent experiments before normalization were also presented as mean ± SEM. pEC50, pKB and pA2 values from independent experiments were grouped and compared by unpaired Student’s t-test or by one-way ANOVA. […]

mAMY1 receptor = target: T1, mAMY1 receptor (Mus musculus, UniProt Q60755+Q9WTJ5); experiment: cell-based; settings: SEM
T1 sequence (Q60755 42-496 isoform Q60755-2 limits assumed): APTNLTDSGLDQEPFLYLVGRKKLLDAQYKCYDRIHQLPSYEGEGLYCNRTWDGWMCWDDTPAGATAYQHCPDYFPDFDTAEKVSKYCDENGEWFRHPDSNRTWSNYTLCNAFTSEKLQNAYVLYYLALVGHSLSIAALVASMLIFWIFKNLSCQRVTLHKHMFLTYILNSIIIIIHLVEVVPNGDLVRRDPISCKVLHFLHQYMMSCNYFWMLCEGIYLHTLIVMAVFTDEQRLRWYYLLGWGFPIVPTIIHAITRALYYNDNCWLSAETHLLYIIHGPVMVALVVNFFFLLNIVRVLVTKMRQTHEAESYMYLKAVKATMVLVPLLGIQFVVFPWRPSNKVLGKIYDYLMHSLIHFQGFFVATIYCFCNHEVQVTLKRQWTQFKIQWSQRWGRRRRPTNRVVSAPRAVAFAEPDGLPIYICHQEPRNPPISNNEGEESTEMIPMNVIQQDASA
T1 sequence (Q9WTJ5 27-148): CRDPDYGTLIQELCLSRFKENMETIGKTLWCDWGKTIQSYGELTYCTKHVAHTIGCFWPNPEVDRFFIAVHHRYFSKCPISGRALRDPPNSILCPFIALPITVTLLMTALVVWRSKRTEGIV
Method: as §1, §2, §3, §4

Chain of mCGRP receptor (Q9R1W5 23-463, one chain of several): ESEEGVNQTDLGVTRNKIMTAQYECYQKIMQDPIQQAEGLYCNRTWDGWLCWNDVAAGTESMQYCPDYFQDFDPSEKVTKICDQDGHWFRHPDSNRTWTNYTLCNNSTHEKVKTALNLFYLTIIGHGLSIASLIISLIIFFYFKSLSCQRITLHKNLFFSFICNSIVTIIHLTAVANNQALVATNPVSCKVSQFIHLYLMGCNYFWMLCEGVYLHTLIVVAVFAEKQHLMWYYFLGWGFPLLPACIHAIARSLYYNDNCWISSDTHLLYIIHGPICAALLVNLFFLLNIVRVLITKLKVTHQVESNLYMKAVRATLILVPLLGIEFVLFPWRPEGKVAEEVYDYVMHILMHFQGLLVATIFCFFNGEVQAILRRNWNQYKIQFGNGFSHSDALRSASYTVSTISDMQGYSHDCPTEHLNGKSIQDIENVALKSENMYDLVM

CC(C)C[C@H](NC(=O)CNC(=O)[C@H](C)NC(=O)[C@H](CC(C)C)NC(=O)[C@H](CCCNC(=N)N)NC(=O)[C@H](Cc1cnc[nH]1)NC(=O)[C@@H](NC(=O)[C@@H](N)C(C)C)[C@@H](C)O)C(=O)N[C@@H](CC(C)C)C(=O)N[C@@H](CO)C(=O)N[C@@H](CCCNC(=N)N)C(=O)N[C@@H](CO)C(=O)NCC(=O)NCC(=O)N[C@H](C(=O)N[C@H](C(=O)N[C@@H](CCCCN)C(=O)N[C@@H](CC(N)=O)C(=O)N[C@@H](CC(N)=O)C(=O)N[C@@H](Cc1ccccc1)C(=O)N[C@H](C(=O)N1CCC[C@H]1C(=O)N[C@H](C(=O)N[C@@H](CC(N)=O)C(=O)N[C@H](C(=O)NCC(=O)N[C@@H](CO)C(=O)N[C@@H](CCCCN)C(=O)N[C@@H](C)C(=O)N[C@@H](Cc1ccccc1)C(N)=O)C(C)C)[C@@H](C)O)C(C)C)C(C)C)C(C)C [αCGRP8-37]
Kb (mCGRP receptor): 1 nM | Kb (mAMY1 receptor): 24.5 nM
